System: NCI60 cell lines
Assay: NCI60 cell line panel
Type: cell-based, human
Protocol: The Developmental Therapeutics Program (DTP) of NCI has evaluated more than 100,000 pure compounds and more than 34,000 crude extracts against the panel of human tumor cell lines. The resultant data are analyzed using a program called COMPARE, that rank the entire database of tested compounds in the order of the similarity of the responses. […] Thus, the NCI60 databases is highly useful to the cancer research community. Further experiments were conducted that tested some of the active compounds in a panel of NCI60 cell line to relate our compounds with some known inhibitors to have an idea of possible mechanism of action.
In order to understand the selectivity of these compounds in different cancer types, some of them were tested against a panel of 60 cell lines (Table XXXIX).

[1] = Non-Small Cell Lung Cancer, A549/ATCC
[2] = Non-Small Cell Lung Cancer, EKVX
[3] = Non-Small Cell Lung Cancer, HOP-62
[4] = Non-Small Cell Lung Cancer, HOP-92
[5] = Non-Small Cell Lung Cancer, NCI-H23
[6] = Non-Small Cell Lung Cancer, NCI-H226
[7] = Non-Small Cell Lung Cancer, NCI-H322M
[8] = Non-Small Cell Lung Cancer, NCI-H460
[9] = Non-Small Cell Lung Cancer, NCI-H522

## CCN(CC)CCCC(C)Nc1cnc(C(=O)Nc2cc(F)cc3cccnc23)cn1 (stereo not shown) [J17, 5-((5-(diethylamino)pentan-2-yl)amino)-N-(6-fluoroquinolin-8-yl)pyrazine-2-carboxamide]
Breast Cancer, BT-549
  GIPRCNT: % Growth inhibition: 77.38%
Breast Cancer, HS 578T
  GIPRCNT: % Growth inhibition: 69.28%
Breast Cancer, MCF7
  GIPRCNT: % Growth inhibition: 2.311%
Breast Cancer, MDA-MB-231/ATCC
  GIPRCNT: % Growth inhibition: 59.42%
Breast Cancer, MDA-MB-468
  GIPRCNT: % Growth inhibition: 6.238%
Breast Cancer, T-47D
  GIPRCNT: % Growth inhibition: 14.34%
CNS Cancer, SF-268
  GIPRCNT: % Growth inhibition: 51.93%
CNS Cancer, SF-295
  GIPRCNT: % Growth inhibition: 71.23%
CNS Cancer, SF-539
  GIPRCNT: % Growth inhibition: 83.12%
CNS Cancer, SNB-19
  GIPRCNT: % Growth inhibition: 83.09%
CNS Cancer, SNB-75
  GIPRCNT: % Growth inhibition: 65.6595%
CNS Cancer, U251
  GIPRCNT: % Growth inhibition: 50.2764%
Colon Cancer, COLO 205
  GIPRCNT: % Growth inhibition: 3.108%
Colon Cancer, HCC-2998
  GIPRCNT: % Growth inhibition: 66.69%
Colon Cancer, HCT-15
  GIPRCNT: % Growth inhibition: 24.5%
Colon Cancer, HCT-116
  GIPRCNT: % Growth inhibition: 9.52%
Colon Cancer, HT29
  GIPRCNT: % Growth inhibition: 11.8%
Colon Cancer, KM12
  GIPRCNT: % Growth inhibition: 75.34%
Colon Cancer, SW-620
  GIPRCNT: % Growth inhibition: 24.3%
Leukemia, CCRF-CEM
  GIPRCNT: % Growth inhibition: 19.66%
Leukemia, HL-60(TB)
  GIPRCNT: % Growth inhibition: 85.54%
Leukemia, K-562
  GIPRCNT: % Growth inhibition: 3.946%
Leukemia, MOLT-4
  GIPRCNT: % Growth inhibition: 21.9615%
Leukemia, RPMI-8226
  GIPRCNT: % Growth inhibition: 75.09%
Leukemia, SR
  GIPRCNT: % Growth inhibition: 2.839%
Melanoma, LOX IMVI
  GIPRCNT: % Growth inhibition: 33.27%
Melanoma, M14
  GIPRCNT: % Growth inhibition: 21.9%
Melanoma, MALME-3M
  GIPRCNT: % Growth inhibition: −8.343%
Melanoma, MDA-MB-435
  GIPRCNT: % Growth inhibition: 25.54%
Melanoma, SK-MEL-2
  GIPRCNT: % Growth inhibition: 96.72%
Melanoma, SK-MEL-5
  GIPRCNT: % Growth inhibition: 69.98%
Melanoma, UACC-62
  GIPRCNT: % Growth inhibition: 0.9972%
Melanoma, UACC-257
  GIPRCNT: % Growth inhibition: 76.77%
[1]
  GIPRCNT: % Growth inhibition: 58.01%
[2]
  GIPRCNT: % Growth inhibition: 73.3%
[3]
  GIPRCNT: % Growth inhibition: 64.08%
[4]
  GIPRCNT: % Growth inhibition: 37.52%
[5]
  GIPRCNT: % Growth inhibition: 81.37%
[6]
  GIPRCNT: % Growth inhibition: 85.09%
[7]
  GIPRCNT: % Growth inhibition: 63.8%
[8]
  GIPRCNT: % Growth inhibition: 69.55%
[9]
  GIPRCNT: % Growth inhibition: 52.69%
Ovarian Cancer, IGROV1
  GIPRCNT: % Growth inhibition: 41.74%
Ovarian Cancer, NCI/ADR-RES
  GIPRCNT: % Growth inhibition: 66.76%
Ovarian Cancer, OVCAR-3
  GIPRCNT: % Growth inhibition: 5.413%
Ovarian Cancer, OVCAR-4
  GIPRCNT: % Growth inhibition: 12.24%
Ovarian Cancer, OVCAR-5
  GIPRCNT: % Growth inhibition: 77.12%
Ovarian Cancer, OVCAR-8
  GIPRCNT: % Growth inhibition: 60.52%
Ovarian Cancer, SK-OV-3
  GIPRCNT: % Growth inhibition: 98.32%
Prostate Cancer, DU-145
  GIPRCNT: % Growth inhibition: 63.3%
Prostate Cancer, PC-3
  GIPRCNT: % Growth inhibition: 60.96%
Renal Cancer, 786-0
  GIPRCNT: % Growth inhibition: 68.3555%
Renal Cancer, A498
  GIPRCNT: % Growth inhibition: 62.97%
Renal Cancer, ACHN
  GIPRCNT: % Growth inhibition: 36.59%
Renal Cancer, CAKI-1
  GIPRCNT: % Growth inhibition: 36.66%
Renal Cancer, RXF 393
  GIPRCNT: % Growth inhibition: 33.77%
Renal Cancer, SN12C
  GIPRCNT: % Growth inhibition: 54.47%
Renal Cancer, TK-10
  GIPRCNT: % Growth inhibition: 63.68%
Renal Cancer, UO-31
  GIPRCNT: % Growth inhibition: 29.1%

## CCN(CC)CCCC(C)Nc1cnc(C(=O)Nc2cccc3ccc(OC)nc23)cn1 (stereo not shown) [J11, 5-((5-(diethylamino)pentan-2-yl)amino)-N-(2-methoxyquinolin-8-yl)pyrazine-2-carboxamide]
Breast Cancer, BT-549
  GIPRCNT: % Growth inhibition: 83.22%
Breast Cancer, HS 578T
  GIPRCNT: % Growth inhibition: 69.51%
Breast Cancer, MCF7
  GIPRCNT: % Growth inhibition: 20.06%
Breast Cancer, MDA-MB-231/ATCC
  GIPRCNT: % Growth inhibition: 71.85%
Breast Cancer, MDA-MB-468
  GIPRCNT: % Growth inhibition: 79.15%
Breast Cancer, T-47D
  GIPRCNT: % Growth inhibition: 83.88%
CNS Cancer, SF-268
  GIPRCNT: % Growth inhibition: 63.03%
CNS Cancer, SF-295
  GIPRCNT: % Growth inhibition: 100.8191%
CNS Cancer, SF-539
  GIPRCNT: % Growth inhibition: 0.4567%
CNS Cancer, SNB-19
  GIPRCNT: % Growth inhibition: 94.85%
CNS Cancer, SNB-75
  GIPRCNT: % Growth inhibition: 75.89%
CNS Cancer, U251
  GIPRCNT: % Growth inhibition: 56.1223%
Colon Cancer, COLO 205
  GIPRCNT: % Growth inhibition: 71.37%
Colon Cancer, HCC-2998
  GIPRCNT: % Growth inhibition: 90.92%
Colon Cancer, HCT-15
  GIPRCNT: % Growth inhibition: −25.625%
Colon Cancer, HCT-116
  GIPRCNT: % Growth inhibition: −36.0085%
Colon Cancer, HT29
  GIPRCNT: % Growth inhibition: −47.1759%
Colon Cancer, KM12
  GIPRCNT: % Growth inhibition: 36.32%
Colon Cancer, SW-620
  GIPRCNT: % Growth inhibition: 2.118%
Leukemia, CCRF-CEM
  GIPRCNT: % Growth inhibition: −7.649%
Leukemia, HL-60(TB)
  GIPRCNT: % Growth inhibition: 72.3913%
Leukemia, K-562
  GIPRCNT: % Growth inhibition: −57.0747%
Leukemia, MOLT-4
  GIPRCNT: % Growth inhibition: 53.43%
Leukemia, RPMI-8226
  GIPRCNT: % Growth inhibition: 23.8%
Leukemia, SR
  GIPRCNT: % Growth inhibition: −5.71%
Melanoma, LOX IMVI
  GIPRCNT: % Growth inhibition: −89.8952%
Melanoma, M14
  GIPRCNT: % Growth inhibition: −75.6475%
Melanoma, MALME-3M
  GIPRCNT: % Growth inhibition: −69.7804%
Melanoma, MDA-MB-435
  GIPRCNT: % Growth inhibition: −58.2282%
Melanoma, SK-MEL-2
  GIPRCNT: % Growth inhibition: 70.47%
Melanoma, SK-MEL-5
  GIPRCNT: % Growth inhibition: 5.402%
Melanoma, UACC-62
  GIPRCNT: % Growth inhibition: −57.758%
Melanoma, UACC-257
  GIPRCNT: % Growth inhibition: −39.0086%
[1]
  GIPRCNT: % Growth inhibition: 81.18%
[2]
  GIPRCNT: % Growth inhibition: 104.0141%
[3]
  GIPRCNT: % Growth inhibition: 94.18%
[4]
  GIPRCNT: % Growth inhibition: 49.4978%
[5]
  GIPRCNT: % Growth inhibition: 96.1%
[6]
  GIPRCNT: % Growth inhibition: 61.44%
[7]
  GIPRCNT: % Growth inhibition: 75.47%
[8]
  GIPRCNT: % Growth inhibition: 1.048%
[9]
  GIPRCNT: % Growth inhibition: 5.069%
Ovarian Cancer, IGROV1
  GIPRCNT: % Growth inhibition: 78.33%
Ovarian Cancer, NCI/ADR-RES
  GIPRCNT: % Growth inhibition: 76.12%
Ovarian Cancer, OVCAR-3
  GIPRCNT: % Growth inhibition: −30.7372%
Ovarian Cancer, OVCAR-4
  GIPRCNT: % Growth inhibition: 98.13%
Ovarian Cancer, OVCAR-5
  GIPRCNT: % Growth inhibition: 91.29%
Ovarian Cancer, OVCAR-8
  GIPRCNT: % Growth inhibition: 68.24%
Ovarian Cancer, SK-OV-3
  GIPRCNT: % Growth inhibition: 86.95%
Prostate Cancer, DU-145
  GIPRCNT: % Growth inhibition: 78.79%
Prostate Cancer, PC-3
  GIPRCNT: % Growth inhibition: 69.52%
Renal Cancer, 786-0
  GIPRCNT: % Growth inhibition: 73.41%
Renal Cancer, A498
  GIPRCNT: % Growth inhibition: 46.17%
Renal Cancer, ACHN
  GIPRCNT: % Growth inhibition: −86.4619%
Renal Cancer, CAKI-1
  GIPRCNT: % Growth inhibition: 94.69%
Renal Cancer, RXF 393
  GIPRCNT: % Growth inhibition: 45.96%
Renal Cancer, SN12C
  GIPRCNT: % Growth inhibition: 78.47%
Renal Cancer, TK-10
  GIPRCNT: % Growth inhibition: 90.98%
Renal Cancer, UO-31
  GIPRCNT: % Growth inhibition: 69.07%

— US20220081412A1, “QUINOLINYL-PYRAZINE-CARBOXAMIDE COMPOUNDS AND USES THEREOF” (The Regents of the University of Michigan, priority 2018, published 2022)
